We go through 1 compound from US20230331707A1, “PROGRAMMED CELL NECROSIS INHIBITOR, PREPARATION METHOD THEREFOR, AND USE THEREOF” (Shanghai Institute of Organic Chemistry, Chinese Academy of …, priority 2020, published 2023).

The subject of this assay is TNFα-induced systemic inflammatory response syndrome. Description: TNFα-induced systemic inflammatory response syndrome in mice. The format is in vivo. The note with it: gavage 2 mg/kg, 20 min before TNFα tail vein injection. How it is done:
The adopted biological test scheme was: Tail vein injection of tumor necrosis factor TNFα would lead to the occurrence of systemic inflammatory response syndrome in mice, resulting in decreased body temperature and death. The effect of representative compound QY-10-40 on TNFα-induced systemic inflammatory response syndrome was tested, and the change in body temperature and death of mice were monitored.
Systemic inflammatory response syndrome, also known as inflammatory storm, refers to a systemic non-specific inflammatory response caused by infectious or non-infectious injuries such as severe infection, multiple trauma, burns, ischemia reperfusion, and acute pancreatitis. Under this condition, large amounts of inflammatory factors will release, in severe cases organism will loss the control of inflammatory response, resulting in multi-organ failure and even death.
Methods: The compounds to be tested were dissolved in 0.5% carboxymethyl cellulose according to the required concentration one day in advance, and sonicated overnight. Each mouse was gavaged with 200 μl. 20 min later, […] was injected through the tail vein. Body temperature changes of mice were monitored by infrared thermometer after injection. The effects of the compounds were calculated using Prism Graphpad statistical software.

Consider `Cn1ncc(C(=O)NCc2ccc(-n3cnc4c(N)ncnc43)cc2)c1Cc1ccccc1` [QY-10-40], for which the “effect on TNFα-induced hypothermia, inflammation response and death” value was “effectively resists against TNFα-induced hypothermia, inflammation response and death”.
